Results: PMC5342071, “A first generation inhibitor of human Greatwall kinase, enabled by structural and functional characterisation of a minimal kinase domain construct” (Oncotarget, 2016)

Molecular target: T1, hGWL-KinDom (Homo sapiens, UniProt Q96GX5)
T1 construct: that encoded amino acids (aa) 1-194 + ‘RTFC’ + 740-879 of hGWL; GST (rhinovirus 3C-protease cleavable) (N, cleaved yes); made in house; host or cells: E. coli Rosetta2(DE3)
Assay: Thermal shift assay
Assay type: binding
Settings: read-out: temperature midpoint shift (ΔTm)
Description: Assays were performed using a modified version of the protocol previously described in [41].
The protein crystallised in spacegroup P212121, with two molecules comprising the asymmetric unit. For one molecule (chain A), amino acids 30-72, 86-177 and 740-854 are readily discernible in electron density maps, whilst for the other (chain B) amino acids 30-72, 86-177 and 740-854 are readily discernible.
For thermal denaturation, samples containing protein at 1.5 µM and 5 x SYPRO Orange (diluted from a 5000 x stock supplied in DMSO; Sigma-Aldrich, Gillingham, UK) were prepared in sample buffer: 20 mM HEPES.NaOH pH 7.5, 300 mM NaCl, 0.5 mM TCEP. Denaturation curves were monitored in 96-well PCR plates using a Roche LightCycler 480 II, with 465 and 580 nm filters for excitation and emission wavelengths, respectively. The program was as follows: 1 min at 20°C, followed by a continuous increment of 0.03°C/s to a final temperature of 85°C. Temperature midpoints (Tm) for each folded to unfolded transition were determined by non-linear regression fitting of a modified Boltzmann model to normalized data in Prism 6.0 (version 6.0h, GraphPad Software, La Jolla, CA USA). […]
After stopping the above non-radioactive kinase assay with 1 volume of Kinase-Glo Max reagent the mixture was allowed to incubate for a further 15 min. […] As this assay measures ATP, activity or ATP turnover was measured as the -ΔRLU. […]

T1 sequence (Q96GX5 with tags, fused parts or gaps limits assumed): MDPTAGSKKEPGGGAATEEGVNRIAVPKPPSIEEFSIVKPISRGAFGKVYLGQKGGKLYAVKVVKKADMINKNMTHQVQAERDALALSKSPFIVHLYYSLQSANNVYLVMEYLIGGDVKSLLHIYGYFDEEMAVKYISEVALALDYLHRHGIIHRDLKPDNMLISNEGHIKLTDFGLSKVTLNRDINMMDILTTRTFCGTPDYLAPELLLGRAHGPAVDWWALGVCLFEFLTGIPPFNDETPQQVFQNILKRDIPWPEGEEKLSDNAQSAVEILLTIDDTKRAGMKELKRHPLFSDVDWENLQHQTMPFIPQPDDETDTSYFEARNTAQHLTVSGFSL

## CN[C@@H]1C[C@H]2O[C@@](C)([C@@H]1OC)n1c3ccccc3c3c4c(c5c6ccccc6n2c5c31)C(=O)NC4 [STU, staurosporine]
  ΔTm at 10 µM: 8.2 °C
